± gives the expanded uncertainty stated by the source.
How the values were obtained:
[1] = refractive index (Na D-line) (dimensionless); conditions: 101.33 kPa, Liquid
[2] = refractive index (Na D-line) (dimensionless); xn = mol fraction of the nth substance listed; conditions: 101 kPa, Liquid
[3] = xn = mol fraction of the nth substance listed

CCCS(=O)CCC [dipropyl sulfoxide]
Conditions | surface tension liquid-gas [mN/m]
298.15 K | 32.6 ± 1.8
303.15 K | 32 ± 1.8
308.15 K | 31.5 ± 1.8
313.15 K | 31 ± 1.8
318.15 K | 30.5 ± 1.8
323.15 K | 29.9 ± 1.7
328.15 K | 29.4 ± 1.7

[1]
Conditions | refractive index
298.15 K | 1.4595 ± 0.0015
303.15 K | 1.458 ± 0.0016
308.15 K | 1.456 ± 0.0016

CC(C)S(=O)C(C)C [2,2'-sulfinylbispropane]
Conditions | surface tension liquid-gas [mN/m]
298.15 K | 31.8 ± 1.8
303.15 K | 31.2 ± 1.8
308.15 K | 30.7 ± 1.8
313.15 K | 30.3 ± 1.7
318.15 K | 29.8 ± 1.7
323.15 K | 29.5 ± 1.7
328.15 K | 29.1 ± 1.7

[1]
Conditions | refractive index
298.15 K | 1.4645 ± 0.0016
303.15 K | 1.462 ± 0.0016
308.15 K | 1.4595 ± 0.0016

CCCS(=O)CCC [dipropyl sulfoxide] + O
Conditions | refractive index, [2] | surface tension liquid-gas, [3] [mN/m]
298.15 K, x1 = 0.0105 | 1.344 ± 0.0015 | 52.3 ± 2.6
298.15 K, x1 = 0.01985 | 1.3516 ± 0.0015 | –
298.15 K, x1 = 0.0199 | – | 47.4 ± 2.4
298.15 K, x1 = 0.0469 | 1.374 ± 0.0016 | 42.2 ± 2.2
298.15 K, x1 = 0.0998 | 1.4009 ± 0.0016 | 39.6 ± 2.1
298.15 K, x1 = 0.2019 | 1.4305 ± 0.0016 | 37.5 ± 2
298.15 K, x1 = 0.2809 | 1.4395 ± 0.0015 | 37.2 ± 2
298.15 K, x1 = 0.3975 | 1.446 ± 0.0015 | 35.8 ± 2
298.15 K, x1 = 0.5001 | – | 35.4 ± 1.9
298.15 K, x1 = 0.5049 | 1.4502 ± 0.0015 | –
298.15 K, x1 = 0.6818 | 1.455 ± 0.0015 | 34.3 ± 1.9
298.15 K, x1 = 0.9002 | 1.458 ± 0.0016 | –
303.15 K, x1 = 0.0105 | 1.343 ± 0.0015 | 51.1 ± 2.5
303.15 K, x1 = 0.01985 | 1.351 ± 0.0015 | –
303.15 K, x1 = 0.0199 | – | 46.4 ± 2.3
303.15 K, x1 = 0.0469 | 1.3725 ± 0.0015 | 41.5 ± 2.2
303.15 K, x1 = 0.0998 | 1.399 ± 0.0015 | 38.9 ± 2.1
303.15 K, x1 = 0.2019 | 1.4285 ± 0.0016 | 37 ± 2
303.15 K, x1 = 0.2809 | 1.4375 ± 0.0016 | 36.5 ± 2
303.15 K, x1 = 0.3975 | 1.4455 ± 0.0015 | 35.2 ± 1.9
303.15 K, x1 = 0.5001 | – | 34.9 ± 1.9
303.15 K, x1 = 0.5049 | 1.4495 ± 0.0015 | –
303.15 K, x1 = 0.6818 | 1.454 ± 0.0015 | 34.2 ± 1.9
303.15 K, x1 = 0.9002 | 1.4555 ± 0.0016 | –
308.15 K, x1 = 0.0105 | 1.342 ± 0.0015 | 49.9 ± 2.5
308.15 K, x1 = 0.01985 | 1.3506 ± 0.0015 | –
308.15 K, x1 = 0.0199 | – | 45.3 ± 2.3
308.15 K, x1 = 0.0469 | 1.3711 ± 0.0017 | 40.7 ± 2.1
308.15 K, x1 = 0.0998 | 1.398 ± 0.002 | 38.1 ± 2
308.15 K, x1 = 0.2019 | 1.4245 ± 0.0022 | 36.5 ± 2
308.15 K, x1 = 0.2809 | 1.435 ± 0.0017 | 36 ± 2
308.15 K, x1 = 0.3975 | 1.4445 ± 0.0016 | 34.5 ± 1.9
308.15 K, x1 = 0.5001 | – | 34.3 ± 1.9
308.15 K, x1 = 0.5049 | 1.4486 ± 0.0016 | –
308.15 K, x1 = 0.6818 | 1.452 ± 0.0016 | 33.5 ± 1.9
308.15 K, x1 = 0.9002 | 1.454 ± 0.0015 | –
313.15 K, x1 = 0.0105 | – | 48.8 ± 2.4
313.15 K, x1 = 0.0199 | – | 44.4 ± 2.3
313.15 K, x1 = 0.0469 | – | 40 ± 2.1
313.15 K, x1 = 0.0998 | – | 37.3 ± 2
313.15 K, x1 = 0.2019 | – | 35.9 ± 2
313.15 K, x1 = 0.2809 | – | 35 ± 1.9
313.15 K, x1 = 0.3975 | – | 34.1 ± 1.9
313.15 K, x1 = 0.5001 | – | 33.8 ± 1.9
313.15 K, x1 = 0.6818 | – | 32.9 ± 1.8
318.15 K, x1 = 0.0105 | – | 47.6 ± 2.4
318.15 K, x1 = 0.0199 | – | 44.3 ± 2.3
318.15 K, x1 = 0.0469 | – | 39.3 ± 2.1
318.15 K, x1 = 0.0998 | – | 36.6 ± 2
318.15 K, x1 = 0.2019 | – | 35 ± 1.9
318.15 K, x1 = 0.2809 | – | 34.4 ± 1.9
318.15 K, x1 = 0.3975 | – | 33.4 ± 1.9
318.15 K, x1 = 0.5001 | – | 33.3 ± 1.9
318.15 K, x1 = 0.6818 | – | 32.2 ± 1.8
323.15 K, x1 = 0.0105 | – | 46.6 ± 2.4
323.15 K, x1 = 0.0199 | – | 43.2 ± 2.2
323.15 K, x1 = 0.0469 | – | 38.5 ± 2.1
323.15 K, x1 = 0.0998 | – | 35.7 ± 2
323.15 K, x1 = 0.2019 | – | 34.4 ± 1.9
323.15 K, x1 = 0.2809 | – | 33.8 ± 1.9
323.15 K, x1 = 0.3975 | – | 32.8 ± 1.8
323.15 K, x1 = 0.5001 | – | 32.7 ± 1.8
323.15 K, x1 = 0.6818 | – | 31.6 ± 1.8
328.15 K, x1 = 0.0105 | – | 45.6 ± 2.3
328.15 K, x1 = 0.0199 | – | 42.2 ± 2.2
328.15 K, x1 = 0.0469 | – | 37.8 ± 2
328.15 K, x1 = 0.0998 | – | 35 ± 1.9
328.15 K, x1 = 0.2019 | – | 33.7 ± 1.9
328.15 K, x1 = 0.2809 | – | 33.1 ± 1.9
328.15 K, x1 = 0.3975 | – | 32.2 ± 1.8
328.15 K, x1 = 0.5001 | – | 32.1 ± 1.8
328.15 K, x1 = 0.6818 | – | 30.8 ± 1.8

CC[S+]([O-])CC [diethyl sulfoxide]
Conditions | surface tension liquid-gas [mN/m]
298.15 K | 34.6 ± 1.9
303.15 K | 34.1 ± 1.9
308.15 K | 33.7 ± 1.9
313.15 K | 33.2 ± 1.9
318.15 K | 32.7 ± 1.8
323.15 K | 32.4 ± 1.8
328.15 K | 32 ± 1.8

[1]
Conditions | refractive index
298.15 K | 1.468 ± 0.0016
303.15 K | 1.466 ± 0.0016
308.15 K | 1.464 ± 0.0016
